From patent publication US20250283050A1, “METHOD OF CANCER TREATMENT” (priority 2021, published 2025)

Experiments:
stomach cancer = assay: en bloc tumor culture with chemotherapeutic agent and Hom-1-TAMs: stomach cancer; type: cell-based; details: agent plus Hom-1-TAMs
Description: Besides CRC, Hom-1-TAMs reverse immune polarity of PDAC and NSCLC TME (data not shown). The effects of Hom-1-TAM on tumoricidal effects of DOX were further explored on other tumor types, such as PDAC, NSLC, esophageal cancer and stomach cancers.
(§1) Additional chemo-reagents used in this study are listed below.
(§2) Tumor tissue were washed with 1×PBS buffer plus antibiotics and then cut into 0.5 cm pieces. Tissues were cultured in 2 mL of RPMI 1640 medium, supplemented with 2-10% FBS (Sigma) and 1% antibiotic-antimycotic solution (Gibco) in 24-well plate (Corning). The cultures were incubated at a 37° C., 5% CO2 incubator. […] To evaluate the effect of chemotherapeutic agents, chemo-reagents at indicated concentration or PBS was used instead of the anti-PD-1 antibody. For en bloc tissue and macrophage co-culture assay, 0.25×10^6 GFP-Hom-1 or control GFP transfected autologous macrophages of the same patient were added to the en bloc tissue culture wells. After gently shaking, the plate was incubated at 37° C., 5% CO2 for 3-5 days. The en bloc tissues were then subjected to single 1 cell isolation and analysis as described.

ovarian cancer = assay: en bloc tumor culture with chemotherapeutic agent and Hom-1-TAMs: ovarian cancer; type: cell-based; details: agent plus Hom-1-TAMs
Description: as §1, §2

CC(=O)O[C@H]1C(=O)[C@@]2(C)[C@H]([C@H](OC(=O)c3ccccc3)[C@]3(O)C[C@H](OC(=O)[C@H](O)[C@@H](NC(=O)c4ccccc4)c4ccccc4)C(C)=C1C3(C)C)[C@]1(OC(C)=O)CO[C@@H]1C[C@@H]2O [Taxol]
tumoricidal effects promoted by Hom-1-TAMs (stomach cancer): promoted | tumoricidal effects promoted by Hom-1-TAMs (ovarian cancer): promoted
